According to patent US6174909A, “4-aminotetrahydrobenzisoxazole or -isothiazole compounds” (H. Lundbeck A/S, priority 1995, dated 2001):
Structures can show the parent of a compound that is named as a salt.

Experiments:
[1] = tested on: GABA uptake in synaptosomes; test: GABA uptake inhibition in synaptosomes (overall, i.e. neuronal and glial); type: biochemical; conditions: values marked * = Preliminary Data
Procedure: The inhibition of GABA Uptake was performed by the method described by Falch et. al, Drug Dev. Res., 1990,21, 169-188. By this method the overall, i.e. neuronal and glial, inhibition of GABA uptake is determined.

[2] = tested on: isoniazide induced convulsions in mice; test: Isoniazid antagonism (antagonism of isoniazide induced convulsions in mice); type: in vivo, mice (male NMRI/BOM); conditions: Mus musculus, sc, 30 min before 300 mg isoniazide s.c., protected = no convulsions within 60 min, log probit analysis
Procedure: The test is a test for antagonism of isoniazide induced convulsions in mice.
The test substance is given s.c. to mice (male NMRI/BOM, body weight 20-25 g) and 30 min later 300 mg isoniazide is given s.c. Five mice are used per dose and a control group only receiving isoniazide is included. This dose of isoniazide induces intermittent tonic seizures.
The animals are placed individually in Macrolon type II cages and the time when convulsions first occur is recorded. The experiment is stopped after 90 min. The animals that have not had convulsions within 60 min. are recorded as + (protected). The results, i.e. the number of protected mice pr number of tested mice are stated in fractions as follows: 0/5, 1/5 . . . , 5/5.

Row | SMILES | IC50 [1] [µM] | ED50 [2] [µmol/kg] | IC50 ([1]; hydrobromide) [µM]
1 | CN(CCOC(c1ccc(F)cc1)c1ccc(F)cc1)C1CCCc2onc(O)c21 (racemic) [Compound 16a, (R,S)-4-[N-[bis(4-fluorophenyl)methyl-2-oxyethyl]-N-methylamino]-3-hydroxy-4,5,6,7-tetrahydro-1,2-benzisoxazole, sodium salt] | 4.5 | 55 | 
2 | Oc1noc2c1C(NCCCCc1ccccc1)CCC2 (racemic) [Compound 8h, (R,S)-4-(4-phenylbut-1-ylamino]-3-hydroxy-4,5,6,7-tetrahydro-1,2-benzisoxazole, hydrobromide] | 4.8 | 150 | 
3 | Oc1noc2c1C(N1CCCC1)CCC2 (racemic) [Compound 8d, (R,S)-3-Hydroxy-4-(1-pyrrolidinyl)-4,5,6,7-tetrahydro-1,2-benzisoxazole, hydrobromide] | 210 | > 140 | 
4 | CNC1CCCc2onc(OCOC(=O)c3c(C)cc(C)cc3C)c21 (racemic) [Compound 31b, (R,S)-4-Methylamino-3-(2,4,6-trimethylbenzoyloxymethyloxy)-4,5,6,7-tetrahydro-1,2-benzisoxazole, hemioxalate] | 300 | 55 | 
5 | Oc1noc2c1C(NCC(c1ccccc1)c1ccccc1)CCC2 (racemic) [Compound 41b, (R,S)-3-Hydroxy-4-(2,2-diphenylethylamino)-4,5,6,7-tetrahydro-1,2-benzisoxazole hydrobromide] | 22 | > 190 | 
6 | CN(CCCC(c1ccc(F)cc1)c1ccc(F)cc1)C1CCCc2onc(O)c21 (racemic) [Compound 11a, (R,S)-^4-[N-[4,4-Bis(4-fluorophenyl)butan-1-yi]-N-methylamino]-3-hydroxy-4,5,6,7-tetrahydro-1,2-benzisoxazole, hydrobromide] | 0.73 | 67 | 
7 | CN(CCOC(c1ccccc1)c1ccccc1)C1CCCc2onc(O)c21 (racemic) [Compound 16c, (R,S)-4-[N-(diphenylmethyl-2-oxyethyl)-N-methylamino]-3-hydroxy-4,5,6,7-tetrahydro-1,2-benzisoxazole, hydrochloride] | 0.36 | 160 | 
8 | Cc1ccsc1C(=CCCN(C)C1CCCc2onc(O)c21)c1sccc1C (racemic) [Compound 16d, (R,S)-4-[N-(4,4-bis[3-methylthien-2-yl]-3-butenyl)-N-methylamino]-3-hydroxy-4,5,6,7-tetrahydro-1,2-benzisoxazole hydrochloride] | 0.31 | 63 | 
9 | CNC1CCCc2on(C(=O)NCc3ccccc3)c(=O)c21 (racemic) [Compound 15c] | 84 | > 120 | 
10 | CN(CCCC(c1ccccc1)c1ccccc1)C1CCCc2onc(O)c21 (racemic) [Compound 11b, (R,S)-4-[-N -(4,4-Diphenylbut-1-yl)-N-methylamino]-3-hydroxy-4,5,6,7-tetrahydro-1,2-benzisoxazole, hydrobromide] | 0.41 | 640 | 
11 | CNC1CCCc2onc(O)c21 (single isomer, unassigned; (+)) [Compound 6c, (+)-3-hydroxy-4-methylamino-4,5,6,7-tetrahydro-1,2-benzisoxazole, hydrobromide] |  | > 320 | 42
12 | Oc1noc2c1C(NCCC(c1ccccc1)c1ccccc1)CCC2 (racemic) [Compound 8i, (R,S)-4-(3,3-diphenylpropan-1-ylamind]-3-hydroxy-4,5,6,7-tetrahydro-1,2-benzisoxazole, hydrobromide] | 0.14 | 310 | 
13 | CC(=O)OCCNC1CCCc2onc(O)c21 (racemic) [Compound 8c, (R,S)-4-(2-Acetyloxyethylamino)-3-hydroxy-4,5,6,7-tetrahydro-1,2-benzisoxazole, hydrobromide] | 120 | > 120 | 
14 | CN(CCC=C(c1ccccc1)c1ccccc1)C1CCCc2onc(O)c21 (racemic) [Compound 20a, (R,S)-3-Hydroxy-4-[N-(4,4-diphenyl-3-butenyl)methylamino]4,5,6,7-tetrahydro-1,2-benzisoxazole, hydrochloride] | 0.37 | 97 | 
15 | C=CCNC1CCCc2onc(O)c21 (racemic) [Compound 8f, (R,S)-4-(2-propen-1-ylamino)-3-hydroxy-4,5,6,7-tetrahydro-1,2-benzisoxazole, oxalate] | 100 | 320 | 
16 | CN(CCOC(c1ccc(Cl)cc1)c1ccc(Cl)cc1)C1CCCc2onc(O)c21 (racemic) [Compound 16b, (R,S)-4-[N -[bis (4-chlorophenyl)methyl-2-oxyethyl]-N -methylamino]-3-hydroxy-4,5,6,7-tetrahydro-1,2-benzisoxazole, sodium salt] | 4.9 | 81 | 
